In patent US7947733B2, “Phosphorylated pyrone analogs and methods” (Limerick BioPharma, priority 2007, dated 2011):
Where “and” joins values, the source holds several entries; their conditions need not be identical. Equal entries are not always repeated.

Key:
[1] = in vivo; cited from earlier work
[2] = test system: rats; assay: Blood glucose levels in rats co-administered with quercetin-3′-O-phosphate and tacrolimus; type: in vivo, rat; conditions: for Blood glucose, Mean change from all vehicle control / Blood glucose, Mean change from Day 1: Prograf 0.5 mg/kg i.p. + Vehicle 1; for Blood glucose, Mean: Prograf 0.5 mg/kg i.p. Day 1 to Day 25 + Vehicle 1, 5 rats; for Blood glucose, individual rats: Prograf 0.5 mg/kg i.p. once daily Day 1 to Day 25 + Vehicle 1 Day 11 to Day 25
Description: One set of 5 rats is treated from day 1 to day 25 with inert vehicle 2 intraperitoneally and treated from day 11 to day 25 with inert vehicle 1 intraperitoneally. […] A third set 5 of rats is treated from day 1 to day 25 with tacrolimus (Prograf®) intraperitoneally at 0.5 mg/kg, and treated from day 11 to day 25 intraperitoneally with quercetin-3′-O-phosphate (Q-Phosphate) at 114 mg/kg. The blood glucose level in the rats is measured on days 1, 10, 15, 20, and 25.

[3] = test system: kidney of rats; assay: Renal pathology in rats co-administered with quercetin-3′-O-phosphate and tacrolimus; type: in vivo, rat; conditions: tacrolimus (Prograf) 0.5 mg/kg and inert vehicle, 25 days
Description: Tissue is removed from the kidney of rats treated with tacrolimus (Prograf®) at 0.5 mg/kg and inert vehicle, and from rats treated with tacrolimus (Prograf®) at 0.5 mg/kg and quercetin-3′-O-phosphate (Q-Phosphate) at 11 mg/kg, 28 mg/kg, and at 114 mg/kg for 25 days. […] The tissue from rats treated with Q-Phosphate and tacrolimus show no vacuoles.

## O=c1c(O)c(-c2ccc(O)c(O)c2)oc2cc(O)cc(O)c12 [quercetin aglycone, quercetin]
[1]
  serum half-life: 19 to 25 h

## C=CC[C@@H]1/C=C(\C)C[C@H](C)C[C@H](OC)[C@H]2O[C@@](O)(C(=O)C(=O)N3CCCC[C@H]3C(=O)O[C@H](/C(C)=C/[C@@H]3CC[C@@H](O)[C@H](OC)C3)[C@H](C)[C@@H](O)CC1=O)[C@H](C)C[C@@H]2OC [Prograf ®, tacrolimus, reference compound]
[2]; Day 1
  Blood glucose, Mean change from all vehicle control: -0.10 g/L
  Blood glucose, Mean: 1.27 g/L
  Blood glucose, individual rats: 1.16 g/l (2×) and 1.34 g/l and 1.22 g/l and 1.47 g/l
[2]; Day 10
  Blood glucose, Mean change from Day 1: +0.22 g/l
  Blood glucose, Mean change from all vehicle control: +0.23 g/l
  Blood glucose, Mean: 1.49 g/L
  Blood glucose, individual rats: 1.30 g/L and 1.39 g/L and 1.40 g/L and 1.09 g/L and 2.25 g/L
[2]; Day 15
  Blood glucose, Mean change from Day 1: +1.27 g/l
  Blood glucose, Mean change from all vehicle control: +1.27 g/l
  Blood glucose, Mean: 2.54 g/L
  Blood glucose, individual rats: 3.72 g/L and 1.67 g/L and 2.31 g/L and 1.97 g/L and 3.02 g/L
[2]; Day 20
  Blood glucose, Mean change from Day 1: +1.66 g/l
  Blood glucose, Mean change from all vehicle control: +1.81 g/l
  Blood glucose, Mean: 2.93 g/L
  Blood glucose, individual rats: 2.79 g/L and 3.70 g/L and 2.97 g/L and 2.41 g/L and 2.77 g/L
[2]; Day 25
  Blood glucose, Mean change from Day 1: +1.28 g/l
  Blood glucose, Mean change from all vehicle control: +1.38 g/l
  Blood glucose, Mean: 2.55 g/L
  Blood glucose, individual rats: 0.97 g/L and 3.16 g/L and 1.69 g/L and 2.98 g/L and 3.96 g/L
[3]
  vacuolation of kidney tissue: significant vacuolation
